Experimental findings from patent publication US20190225644A1, “MRNA CAP ANALOGS AND METHODS OF MRNA CAPPING” (ModernaTX, Inc., priority 2015, published 2019) are described below.

For test [1], the target named is T1, eIF4E (Homo sapiens, UniProt P06730). Description: biochemical.
Description: (§1) A sensor chip SA (GE Healthcare) is docked into a Biacore 3000 instrument.
(§2) Compound concentration series are injected over the immobilized protein serially in increasing concentration. Interaction models are fitted globally to the experimental traces, enabling determination of Kd or KD (binding affinity; unit: M) and possibly kon (on-rate, calculated from the association phase; unit: M^−1s^−1) and koff (off-rate, calculated from the dissociation phase; unit: s^−1).
(§3) A sensor chip (SAD5001 or SA) was docked into a Biacore 3000 instrument, washed with 50 mM NaOH, 1M NaCl. Protein eIF4E was diluted in running buffer (50 mM HEPES, 150 mM KCl, 10 mM MgCl2, 2 mM TCEP) to ˜1 μM. The diluted protein solution was injected for 300-600 seconds. Typical capture levels were 5000-6000 RU.
(§4) Test compounds were solubilized in ddH2O or DMSO to 10 mM. 100 μM stocks were prepared by 100-fold dilution in running buffer (50 mM HEPES, 150 mM KCl, 10 mM MgCl2). Assay was run with or without 1% DMSO.
(§5) Data were analyzed in GeneData. Curve fit was accepted or rejected by looking at the resulting sensorgrams and steady state fits.
(§6) Assay has been validated using running buffer with and without DMSO. […] Further, newly captured protein stabilizes slowly, leading to negative responses during the dissociation phase for compounds injected over newly captured protein.
The target of test [2] is T1, eIF4E.
Description: as §1, §2, §3, §4, §5, §6
In test [3] the test system is HeLa Lysate. As to the kind of experiment: Cap competition assay in kinetic cell free in vitro translation (free cap analogs). Conditions: free cap analog 0-100 uM against Cap1-tipped eGFP modRNA, fluorescence plateau. Type of test: biochemical. How it is done: The in vitro translation assay was conducted with the HeLa 1-step coupled IVT kit (ThermoFisher Scientific, Waltham, Mass.) according to the manufacturer's instructions to assess performance of new cap analogs as free compounds or as an integral part of capped mRNA. Cap analogs with affinity to eIF4E protein may reduce protein synthesis rate in cell-free translation. Further, RNAs containing such cap analogs (“Cap-modRNA”) show different potency of protein synthesis in cell-free translation.
For competition assays, the total volume of the cell-free translation reaction was increased to 27.8 uL by addition of either water or diluted free CAP analogs in water. The stock concentration of the free CAP analogs was 1 mM. With two-fold dilutions in water, the concentration was reduced sequentially. […] The CAP analogs used in this study were either commercial products serving as reference material (TriLink, San Diego, Calif.) or compounds disclosed herein. It is hypothesized that the small molecule cap analogs interfere with the assembly of the “closed loop” in a Kd-dependent fashion.
After the fluorescent signal in cell-free translation reaction reached a stable plateau, absolute values thereof were transferred to a statistical analysis program (GraphPad Software, La Jolla, Calif.) and curve fitting or IC50 calculations were derived with settings according to the instructions of the manufacturer.
The results from the cap competition assays are illustrated in FIGS. 1A-1C and 2A-2D. In this study, each of the modRNAs used comprises 1-methyl-pseudouridine, which replaces each uridine in the RNA sequence and 5-methyl cytidine, which replaces each cytidine in the RNA sequence. Further, Table 11 includes the IC50 values of certain compounds of the disclosure.

Test [4] concerns the target T1, eIF4E. As to the kind of experiment: Binding affinities to eIF4E using surface plasmon resonance (SPR). Conditions: for koff: read-out: koff (s^−1). For orientation: Surface plasmon resonance follows binding to a sensor surface in real time, without labels.
Description: as §1, §2, §3, §4, §5, §6

Several values for one entry are separate records, joined by “and”; a condition that tells them apart may be missing. Identical values can stand only once. Like-named read-outs stand apart in the source and are kept apart here.

T1 sequence (P06730 32-217): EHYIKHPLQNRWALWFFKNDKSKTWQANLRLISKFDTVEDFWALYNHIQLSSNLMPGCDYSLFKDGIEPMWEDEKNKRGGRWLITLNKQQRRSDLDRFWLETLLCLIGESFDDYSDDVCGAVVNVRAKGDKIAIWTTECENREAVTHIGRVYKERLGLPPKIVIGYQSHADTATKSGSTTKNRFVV

By Kd is commonly meant the equilibrium constant for the complex coming apart. Lower therefore signals tighter binding. As usually defined, the koff is a measure of how fast the partners let go of each other. With `C[n+]1cn(C2CN(Cc3ccccc3)CC(COP(=O)(O)OP(=O)([O-])OP(=O)([O-])OC[C@H]3O[C@@H](n4c[n+](C)c5c(=O)[nH]c(N)nc54)[C@H](O)[C@@H]3O)O2)c2nc(N)[nH]c(=O)c21` (stereo partly drawn) [Compound 006-31], in test [1], binding was put at a Kd of 2.4 µM. The koff in test [2] is 0.33 s⁻¹.

`C[n+]1cn(C(CO)OC(CO)COP(=O)(O)OP(=O)(O)OP(=O)(O)OC[C@H]2O[C@@H](n3cnc4c(=O)[nH]c(N)nc43)[C@H](O)[C@@H]2O)c2nc(N)[nH]c(=O)c21` (stereo partly drawn) [Compound 006-36] gave a Kd in test [1] of 12 µM.

`CO[C@@H]1[C@H](O)[C@@H](COP(=O)(O)OP(=O)([O-])OP(=O)(O)OCC2CN(Cc3ccccc3)CC(n3c[n+](C)c4c(=O)[nH]c(N)nc43)O2)O[C@H]1n1cnc2c(=O)[nH]c(N)nc21` (stereo partly drawn) [Compound 006-40]: the Kd in test [1] was 1.7 µM. The molecule also showed a dissociation rate constant (koff) in test [2] of 0.34 s⁻¹.

As for `C[n+]1cn([C@@H]2O[C@H](COP(=O)([O-])OP(=O)([O-])OC[C@H]3O[C@@H](n4c[n+](C)c5c(=O)[nH]c(N)nc54)[C@H](O)[C@@H]3O)[C@@H](O)[C@H]2O)c2nc(N)[nH]c(=O)c21` [Compound 005-15], binding in test [1] was characterised by a dissociation constant (Kd) of 75 µM. The koff in test [2] stood at 3.8 s⁻¹.

In test [1], `C[n+]1cn([C@@H]2O[C@H](COP(=O)(O)OCCN(CCOP(=O)(O)OC[C@H]3O[C@@H](n4c[n+](C)c5c(=O)[nH]c(N)nc54)[C@H](O)[C@@H]3O)C(=O)OC(C)(C)C)[C@@H](O)[C@H]2O)c2nc(N)[nH]c(=O)c21` [Compound 008-25] displayed a Kd of 300 µM.

In general, IC50 refers to the point on the concentration scale where inhibition reaches its midpoint. A higher IC50 goes with lower potency. In the case of `COCCO[C@H]1[C@H](O)[C@@H](COP(=O)(O)OP(=O)([O-])OP(=O)(O)OC[C@H]2O[C@@H](n3cnc4c(=O)[nH]c(N)nc43)[C@H](O)[C@@H]2O)O[C@H]1n1c[n+](C)c2c(=O)[nH]c(N)nc21` [Compound 005-12], in test [1], the Kd is 4.3 µM and 4 µM. In test [2], this molecule registered a koff of 0.9 s⁻¹. For the same molecule, the IC50 in test [3] turned out to be 21 µM.

As to `BP(=O)(OP(=O)([O-])OC[C@H]1O[C@@H](n2c[n+](C)c3c(=O)[nH]c(N)nc32)[C@H](O)[C@@H]1O)OP(=O)(O)OC[C@H]1O[C@@H](n2cnc3c(=O)[nH]c(N)nc32)[C@H](O)[C@@H]1O` (stereo partly drawn) [Compound 005-32], the Kd in test [1] came to 0.33 µM. Further, in test [4], the “τ” value is recorded as 9.09 s and the koff came to 0.11 s⁻¹.

Molecule `COCCO[C@@H]1[C@H](O)[C@@H](COP(=O)(O)OP(=O)([O-])OP(=O)(O)OC[C@H]2O[C@@H](n3cnc4c(=O)[nH]c(N)nc43)[C@H](OC)[C@@H]2O)O[C@H]1n1c[n+](C)c2c(=O)[nH]c(N)nc21` [Compound 005-19] displayed a Kd in test [1] of 4.2 µM. The molecule further came in with a koff in test [2] of 0.94 s⁻¹.

As to `C[n+]1cn([C@@H]2O[C@H](COP(=O)(O)OP(=O)([O-])OP(=O)(O)OC[C@H]3O[C@@H](n4cnc5c(=O)[nH]c(N)nc54)[C@H](O)[C@@H]3O)[C@@H](O)[C@@H]2O)c2nc(N)[nH]c(=O)c21` [Compound 005-11], the IC50 in test [3] is 92 µM.

In test [1], `BP(=O)(OP(=O)([O-])OC[C@H]1O[C@@H](n2c[n+](CCOc3ccc(Cl)cc3)c3c(=O)[nH]c(N)nc32)[C@H](OC)[C@@H]1O)OP(=O)(O)OC[C@H]1O[C@@H](n2cnc3c(=O)[nH]c(N)nc32)[C@H](O)[C@@H]1O` (stereo partly drawn) [Compound 005-2] yielded a Kd of 0.1 µM. In addition, in test [4], the “τ” value was 83.33 s and the koff was found to be 0.012 s⁻¹.

Consider `C#CCN1C[C@@H](COP(=O)([O-])OP(=O)(O)OP(=O)(O)OC[C@H]2O[C@@H](n3cnc4c(=O)[nH]c(N)nc43)[C@H](O)[C@@H]2O)O[C@@H](n2c[n+](C)c3c(=O)[nH]c(N)nc32)C1` [Compound 006-27], for which binding in test [1] was characterised by a dissociation constant (Kd) of 9.1 µM. In test [2], this molecule yielded a koff of 1 s⁻¹.

Molecule `BP(=O)(OP(=O)([O-])OC[C@H]1O[C@@H](n2cnc3c(=O)[nH]c(N)nc32)[C@H](O)[C@@H]1O)OP(=O)(O)OCC1CN(C)CC(n2c[n+](C)c3c(=O)[nH]c(N)nc32)O1` (stereo partly drawn) [Compound 006-30] registered a Kd in test [1] of 1.7 µM.

In test [1], `C=CCn1c(=O)n([C@@H]2O[C@H](COP(=O)(O)OP(=O)(O)OP(=O)(O)OC[C@H]3O[C@@H](n4cnc5c(=O)[nH]c(N)nc54)[C@H](O)[C@@H]3O)[C@H]3OC(C)(C)O[C@@H]32)c2nc(N)[nH]c(=O)c21` [Compound 005-13] gave a Kd of 218 µM. Also, in test [3], the IC50 was 318 µM.

For `CO[C@@H]1[C@H](O)[C@@H](COP(=O)([O-])OP(=O)([O-])OC[C@H]2O[C@@H](n3c[n+](C)c4c(=O)[nH]c(N)nc43)[C@H](O)[C@@H]2O)O[C@H]1n1c[n+](C)c2c(=O)[nH]c(N)nc21` [Compound 005-8], the Kd in test [1] was found to be 75 µM. In test [2], this molecule yielded a koff of 3.8 s⁻¹.

`CO[C@@H]1[C@H](O)[C@@H](COP(=O)(O)OP(=O)([O-])OP(=O)(O)OCC2O[C@@H](n3c[n+](C)c4c(=O)[nH]c(N)nc43)[C@](C)(O)[C@@H]2O)O[C@H]1n1cnc2c(=O)[nH]c(N)nc21` (stereo partly drawn) [Compound 007-38] yielded a Kd in test [1] of 11 µM. In other words, the double-digit micromolar range.

As for `C[n+]1cn([C@H]2CN(CCO)C[C@@H](COP(=O)([O-])OP(=O)(O)OP(=O)(O)OC[C@H]3O[C@@H](n4cnc5c(=O)[nH]c(N)nc54)[C@H](O)[C@@H]3O)O2)c2nc(N)[nH]c(=O)c21` [Compound 006-3], the Kd in test [1] was 8 to 9 µM and 9 µM. Moreover, the koff in test [2] came out at 0.6 s⁻¹. For the same molecule, the IC50 in test [3] worked out at 33 µM.

`BP(=O)(OP(=O)([O-])OC[C@H]1O[C@@H](n2c[n+](C)c3c(=O)[nH]c(N)nc32)[C@H](OC)[C@@H]1O)OP(=O)(O)OC[C@H]1O[C@@H](n2cnc3c(=O)[nH]c(N)nc32)[C@H](O)[C@@H]1O` (stereo partly drawn) [Compound 005-3] gave a Kd in test [1] of 0.5 to 1.1 µM.

As for `CO[C@@H]1[C@H](O)[C@@H](COP(=O)([O-])OP(=O)([O-])OP(=O)(O)OC[C@H]2O[C@@H](n3c[n+](C)c4c(=O)[nH]c(N)nc43)[C@H](O)[C@@H]2O)O[C@H]1n1c[n+](C)c2c(=O)[nH]c(N)nc21` [Compound 005-7], the affinity in test [1], expressed as Kd, was 2.7 µM. Further, the koff in test [2] worked out at 0.26 s⁻¹.

Regarding `C[n+]1cn([C@@H]2O[C@H](COP(=O)(O)OP(=O)([O-])OP(=O)([O-])OP(=O)(O)OC[C@H]3O[C@@H](n4c[n+](C)c5c(=O)[nH]c(N)nc54)[C@H](O)[C@@H]3O)[C@@H](O)[C@H]2O)c2nc(N)[nH]c(=O)c21` [Compound 005-9], the Kd in test [1] was 1.1 µM and 1 µM. Also, the koff in test [2] stood at 0.41 s⁻¹. This molecule gave an IC50 in test [3] of 9 µM.

The molecule `CO[C@@H]1[C@H](O)[C@@H](COP(=O)(O)OP(=O)([O-])OP(=O)([O-])OP(=O)(O)OC[C@H]2O[C@@H](n3c[n+](C)c4c(=O)[nH]c(N)nc43)[C@H](O)[C@@H]2O)O[C@H]1n1c[n+](C)c2c(=O)[nH]c(N)nc21` [Compound 005-6] registered a Kd in test [1] of 1.1 µM. In test [2], this molecule displayed a koff of 0.41 s⁻¹.

For the molecule `Cn1c[n+]([C@@H]2O[C@H](COP(=O)(O)OP(=O)([O-])OP(=O)(O)OC[C@H]3O[C@@H](n4cnc5c(=O)[nH]c(N)nc54)[C@H](O)[C@@H]3O)[C@@H](O)[C@H]2O)c2nc(N)[nH]c(=O)c21` [Cap0, m7GpppG, reference compound], the IC50 in test [3] came out at 35 µM.

In test [1], `C[C@@]1(O)[C@H](O)[C@@H](COP(=O)(O)OP(=O)(O)OP(=O)(O)OC[C@H]2O[C@@H](n3cnc4c(=O)[nH]c(N)nc43)[C@H](O)[C@@H]2O)O[C@H]1n1c[n+](CCOc2ccc(Cl)cc2)c2c(=O)[nH]c(N)nc21` [Compound 007-37] showed a Kd of 0.1 µM. Besides, the koff in test [2] was 0.057 s⁻¹.

Turning to `CO[C@@H]1[C@H](O)[C@@H](COP(=O)(O)OP(=O)([O-])OP(=O)(O)OCC2CN(C)CC(n3c[n+](C)c4c(=O)[nH]c(N)nc43)O2)O[C@H]1n1cnc2c(=O)[nH]c(N)nc21` (stereo partly drawn) [Compound 006-39], the Kd in test [1] was 6.7 to 8.7 µM. In test [2], this molecule returned a koff of 1.5 s⁻¹.

Consider `Nc1nc2c(ncn2[C@@H]2O[C@H](COP(=O)(O)OP(=O)(O)OP(=O)(O)OC[C@H]3O[C@@H](c4cn(CCOc5ccc(Cl)cc5)c5c(=O)[nH]c(N)nc45)[C@H](O)[C@@H]3O)[C@@H](O)[C@H]2O)c(=O)[nH]1` [Compound 005-1], for which the koff in test [2] turned out to be 0.08 s⁻¹. In test [3], this molecule yielded an IC50 of 25 µM.

The molecule `C[n+]1cn([C@@H]2O[C@H](COP(=O)(O)OP(=O)(O)OP(=O)(O)OC[C@H]3O[C@@H](n4cnc5c(=O)[nH]c(N)nc54)[C@H](O)[C@@H]3O)[C@@H](O)[C@@]2(C)O)c2nc(N)[nH]c(=O)c21` [Compound 007-1] came in with a Kd in test [1] of 11 µM. In addition, in test [2], the koff came to 1 s⁻¹. Also, in test [3], the IC50 was found to be 179 µM.

For `C[n+]1cn([C@@H]2O[C@H](COP(=O)([O-])OCCOCCOP(=O)([O-])OC[C@H]3O[C@@H](n4c[n+](C)c5c(=O)[nH]c(N)nc54)[C@H](O)[C@@H]3O)[C@@H](O)[C@H]2O)c2nc(N)[nH]c(=O)c21` [Compound 008-2], in test [1], binding was characterised by a dissociation constant (Kd) of 110 µM.

Take `C[n+]1cn([C@H]2C[C@H](O)[C@@H](COP(=O)(O)OP(=O)([O-])OP(=O)(O)OC[C@H]3O[C@@H](n4cnc5c(=O)[nH]c(N)nc54)[C@H](O)[C@@H]3O)O2)c2nc(N)[nH]c(=O)c21` [Compound 005-31]: the Kd in test [1] worked out at 3.58 µM. Against the preceding molecule, the Kd is about 31-fold lower.
